Measured values reported in PubChem BioAssay AID624323 (Sanford-Burnham Center for Chemical Genomics, 2012).
≈ marks a conversion by molar mass, not a printed value. Calls of active or inactive are those of the source. No rule for the calls is given here.

Tested on: aqueous buffer solubility, pH 5.0/6.2/7.4
Experiment: compound solubility, pH 5.0, 6.2, 7.4 – biophysical, set 2, ADME assay (AID 624323)
Settings: at 100 µM, stronger effect = higher value
[1] = measured here: solubility at pH 5.0
[2] = measured here: solubility at pH 6.2

SMILES	solubility	solubility [1]	solubility [2]
Cc1cc2c(s1)c1cnn(Cc3ccccc3F)c(=O)c1n2C	0.11 µg/mL (inactive) (≈ 0.336 µM)	0.16 µg/mL (≈ 0.489 µM)	0.19 µg/mL (≈ 0.58 µM)
CC[C@H]1CN2CCc3cc(OC)c(OC)cc3[C@@H]2C[C@@H]1C[C@H]1NCCc2cc(OC)c(OC)cc21	> 55 µg/mL	> 55 µg/mL	> 55 µg/mL
CCCc1nc2c(=O)n(C)c(=O)nc-2n(C)n1	> 23 µg/mL	> 23 µg/mL	> 23 µg/mL
O=c1c(O)c(-c2cc(O)c(O)c(O)c2)oc2cc(O)cc(O)c12	1.7 µg/mL (inactive) (≈ 5.34 µM)	3.2 µg/mL (≈ 10.1 µM)	5.3 µg/mL (≈ 16.7 µM)
Cc1ccc(C)c(NS(=O)(=O)c2cc(C(=O)Nc3ccccc3-c3ccccc3)ccc2Cl)c1	0.81 µg/mL (inactive) (≈ 1.65 µM)	< 0.1 µg/mL	< 0.1 µg/mL
Cc1ccc(N2CCN(S(=O)(=O)N3CCCCC3)CC2)c(C)c1	1.6 µg/mL (inactive) (≈ 4.74 µM)	1.8 µg/mL (≈ 5.33 µM)	1.5 µg/mL (≈ 4.44 µM)
Cc1cc(C(=O)CN2C(=O)CCC2=O)c(C)n1Cc1ccccc1	> 32 µg/mL	25.2 µg/mL (≈ 77.7 µM)	22.6 µg/mL (≈ 69.7 µM)
Cc1cccc(-n2cnc3cc(C(=O)N4CCCCC4)ccc32)c1	> 32 µg/mL	> 32 µg/mL	> 32 µg/mL
COc1ccc(OC)c(S(=O)(=O)Nc2cnc3ccccc3c2)c1	25.8 µg/mL (≈ 74.9 µM)	20.8 µg/mL (≈ 60.4 µM)	25.7 µg/mL (≈ 74.6 µM)
CCOC(=O)C(C)Oc1cccc2c(=O)n(CC(=O)Nc3ccc4c(c3)OCCO4)ccc12 (stereo not given)	0.36 µg/mL (inactive) (≈ 0.796 µM)	0.27 µg/mL (≈ 0.597 µM)	0.31 µg/mL (≈ 0.685 µM)
O=C(COC(=O)C12CC3CC(CC(C3)C1)C2)NCc1ccco1	2.6 µg/mL (inactive) (≈ 8.19 µM)	< 0.1 µg/mL	4.2 µg/mL (≈ 13.2 µM)
COc1nc(-c2ccccc2)nnc1-c1ccccc1	0.38 µg/mL (inactive) (≈ 1.44 µM)	1 µg/mL (≈ 3.8 µM)	0.78 µg/mL (≈ 2.96 µM)
CN1CSC(=S)N(C)C1	> 16 µg/mL	12.4 µg/mL (≈ 76.4 µM)	12.7 µg/mL (≈ 78.3 µM)
COc1ccc(OC)c(-c2nnc3n2N=C(c2ccc(OC)c(OC)c2)CS3)c1	26.1 µg/mL (≈ 63.3 µM)	28.2 µg/mL (≈ 68.4 µM)	29.5 µg/mL (≈ 71.5 µM)
Cc1cc(C)n(-c2nc(NCCCO)c3c4c(sc3n2)CCCC4)n1	20.7 µg/mL (≈ 57.9 µM)	17.6 µg/mL (≈ 49.2 µM)	20.4 µg/mL (≈ 57.1 µM)
CCCn1ncc(CN2CCCC(C(=O)c3cccc(OC(C)C)c3)C2)c1C (stereo not given)	> 38 µg/mL	> 38 µg/mL	> 38 µg/mL
O=C1CCCC2=C1C1(CCCC1)N=C(Nc1nc3ccccc3o1)N2	0.07 µg/mL (inactive) (≈ 0.208 µM)	0.07 µg/mL (≈ 0.208 µM)	0.09 µg/mL (≈ 0.268 µM)
Oc1cc(O)cc(/C=C/c2ccc(O)c(O)c2)c1	10.1 µg/mL (≈ 41.4 µM)	> 24 µg/mL	> 24 µg/mL
O=C(c1ccccn1)N(Cc1cccs1)C1(C(=O)NC2CCCCC2)CCCCC1	22.7 µg/mL (≈ 53.3 µM)	7.4 µg/mL (≈ 17.4 µM)	15 µg/mL (≈ 35.2 µM)
O=[N+]([O-])c1ccc(CN2CCOCCOCCN(Cc3ccc([N+](=O)[O-])cc3)CCOCC2)cc1	27.4 µg/mL (≈ 56.1 µM)	> 48 µg/mL	> 48 µg/mL
COc1cccc(-c2nc(-c3ccc(NC(=O)Cc4ccccc4OC)cc3)no2)c1	< 0.01 µg/mL (inactive)	0.09 µg/mL (≈ 0.217 µM)	0.05 µg/mL (≈ 0.12 µM)
COc1ccc(CSc2nc(C)cc(=O)[nH]2)cc1	> 26 µg/mL	> 26 µg/mL	> 26 µg/mL
COc1ccc(C2c3c(ncn(CCN4CCOCC4)c3=N)Oc3ccc4ccccc4c32)cc1OC (stereo not given)	41.5 µg/mL (≈ 83.2 µM)	> 49 µg/mL	41.2 µg/mL (≈ 82.6 µM)
COc1ccc(CNCc2cccc3ccccc23)cc1	26.2 µg/mL (≈ 94.5 µM)	> 36 µg/mL	> 36 µg/mL
O=C(COc1ccccc1Br)NCCc1nc2ccccc2[nH]1	> 37 µg/mL	> 37 µg/mL	> 37 µg/mL
